{"source": "patent US9255263B2", "about": "“Antithrombotic compounds” (King's College London, priority 2009, dated 2016)", "key": {"RBCs": {"system": "RBCs", "experiment": "Internalisation by 2-colour FACS on RBCs", "format": "cell-based", "protocol": "To gain insight into internal versus external exposure of the compounds, cells treated with these materials were incubated with an antibody raised against hirudin (anti Hir-mAb) which cross-reacts with the HLL-1 peptide sequence. Compounds located on the outside of cells were detected by FACS using this antibody in combination with a secondary phycoerythrin (PE)-conjugated antibody, at different time points. This system enabled the ratios of externally presented compound (red PE plus green FAM fluorescence) and internalised compound (green fluorescence only) to be estimated."}, "human thrombin": {"biological_target": "human thrombin (Homo sapiens, UniProt P00734)", "experiment": "GPBC assay: compound bound to guinea pig erythrocytes against exogenous human thrombin", "format": "cell-based", "conditions": "inhibitors 1 uM at cell-binding step, normalised for cell number", "protocol": "Method and results. Guinea Pig Blood Cells (GPBCs Harlan, UK) were extensively washed with Gelatin Veronal Buffer (GVB, Sigma G6514). A fixed volume of cell suspension (100 ul containing about 10^8 cells) was then diluted 1:1 with GVB before Compounds 1 or 2 were added; control HLL was used at the same final concentration. Cells were incubated for 10 min at ambient temperature with gentle agitation. Three washes with GVB were performed (each with at least 500 ul GVB) before discarding the supernatant and leaving cell pellet as dry as possible. Cell pellet was then resuspended with GVB and hThrombin (between 0.01 and 0.1 units) was added: reaction volume was 460 ul. Cells were incubated for 3 min at 37° C. in a waterbath and after incubation, gently pelleted by centrifugation. Supernatant (˜400 ul) was recovered and spun again to remove any residual cells. Supernatant (380 ul) was transferred to a spectrophotometer and 70 µl of GVB and 50 ul thrombin substrate (1 mM in GVB) added. The sample adsorbance was recorded at 405 nm for 20 min at 25° C.\nThe cell-based thrombin inhibitory capacity of Compounds 1 and 2 were compared by normalising for cell number in the GPBC assay. […] Both values result from using inhibitors at 1 uM final concentration of the compounds at the cell-binding step."}, "[1]": {"system": "Human CD34-derived progenitor cells", "experiment": "Human plasma recalcification (clotting) assay with prothrombotic cells", "format": "cell-based", "conditions": "for effect on cell-promoted fibrin clot formation: cells pre-incubated with agent and washed", "protocol": "Human plasma preparation: Human blood was drawn from volunteers with heparin and human plasma prepared by centrifugation, before storage at −80° C.\nHuman plasma recalcification assay (based on Lin et al Transplantation, 86(5):702-9, 2008): Human CD34-derived progenitor cells were suspended in 50 μl Tris-buffered saline and mixed with 100 μl of normal human plasma (Sigma) in glass tubes (Corning, Corning, N.Y.). Ten (10) μl of 250 mM CaCl2 in Tris-buffered saline combined with 90 μl phospholipids (Diagnostic Reagents, Oxford, UK) were added, and the tube incubated at 37° C. in a water bath—the time for a fibrin clot to form was determined in triplicate, during which time the tubes were continuously agitated by tilting. In some assays, cells were incubated with 200 uL of Compound 1 (50 uM) for 30 min at 4° C. before washing twice and inclusion in the clotting assay."}, "[2]": {"system": "DA kidney graft in pre-sensitised Lewis recipients", "format": "in vivo, rat", "from_the_text": "Rat used were inbred male DA (RT1^a) and Lewis (RT1^i) at the age of 7-8 weeks and a weight of 150-200 g. The model of hyperimmune rejection was based on renal allografts from MHC Class I disparate donors and recipients with modifications to enable life-sustaining renal transplantation. Prior to transplantation, Lewis recipients were pre-sensitised by sequential grafting of three 2×2 cm full thickness skin DA grafts placed to the recipient's dorsal back. The first two skin transplants were received biweekly, followed by a four week period during which alloantibody reached its peak (data not shown), followed by the placement of a third skin graft.\nSeven to ten days after the third skin graft, Lewis recipients received a DA kidney graft which had been perfused with different concentrations of Compound 1 (0.1-5 μM) and either flushed or not with Soltran solution (see above).\nFor the recipient preparation, a midline laparotomy was performed followed by removal of the left kidney. Microaneurysm clips (Johnson & Johnson, UK) were used to clamp the renal vein and artery. The donor kidney was transplanted orthotopically in an end to end anastomosis of the renal vein, artery and ureter using 10-0 sutures (BEAR MEDIC Corp, Japan). The donor and the recipient preparations were taking place simultaneously thus eliminating any cold ischemia. At the end of warm ischemia time, which was 30 minutes, the clips were removed and blood flow was restored to the transplanted kidney. Finally, a second native nephrectomy was performed making the transplanted kidney life-sustaining.\nAPT070 is a 23 kDa fragment of human complement receptor type 1(CR1) described in WO 98/0245. […] The inventors assessed the effects of these agents in the RATx model as a preliminary to combination studies with Compound 1. […]"}, "[3]": {"experiment": "Solubility observed during preparation", "format": "physicochemical", "protocol": "N-myristoyl-GSSKSPSKKKKKKPGDC(S-2-thiopyridyl)-amide (containing SEQ ID NO. 4) (Smith R, Biochem. Soc. Transactions, 30: 1037-41, 2002) was prepared by solid phase synthesis. 0.1 ml of a solution of this conjugate (10 mg/ml) in DMSO was added to a solution of HLL-1 in PBS (4.8 mM, 0.2 ml). The mixture was held at 24° C. for 1 h and the concentration of 2-thiopyridine released calculated from the absorbance at 343 nm. […] After a further 30 min at 24° C., approximately 84% of the HLL peptide had reacted. The mixture was diluted to 2 ml with PBS (slight cloudiness was observed) and then concentrated using a Vivaspin 2 3 kDa cutoff PES membrane cartridge at 2500 rpm/4° C./90 min. […] Compound 3 has a theoretical molecular weight of 4403 daltons."}}, "note": "Values joined by “and” are separate entries in the source; they are usually repeats but may differ in a detail not shown here. Equal entries are not always repeated. Where no end group is shown, it is not given here. The star is where a group is joined. Myristoyl = CCCCCCCCCCCCCC(=O)*", "data": [{"compound": "Conjugate of Anticoagulant Peptide HLL-1 with N-(α,ε bis-myristoyl lysine) SSKSPSKKDDKKPGDC-acid ({Myristoyl-K(myristoyl)}-SSKSPSKKDDKKPGDC-OH; also: C-terminal Cys disulfide-linked to HLL-1 peptide) [Compound 2]", "values": [{"measurement": "total labelled cells", "setting": "RBCs", "result": 98, "unit": "%"}, {"measurement": "externally detected percentage", "setting": "RBCs; after 1 h", "result": "around 65%"}, {"measurement": "cells red and green (compound displayed on outer cell membrane)", "setting": "RBCs; initially", "result": 82, "unit": "%"}, {"measurement": "ratio Compound 2/Compound 1 for the specific cell inhibition capacity", "setting": "human thrombin; 0.05 U of thrombin", "result": 2.1}, {"measurement": "ratio Compound 2/Compound 1 for the specific cell inhibition capacity", "setting": "human thrombin; 0.1 U of thrombin", "result": 1.3}]}, {"compound": "CC[C@H](C)[C@H](NC(=O)[C@H](CCC(=O)O)NC(=O)[C@H](CCC(=O)O)NC(=O)[C@H](Cc1ccccc1)NC(=O)[C@H](CC(=O)O)NC(=O)CNC(=O)[C@H](CC(=O)O)NC(=O)CNC(=O)CNC(=O)CNC(=O)CNC(=O)[C@@H]1CCCN1C(=O)[C@H](CCCNC(=N)N)NC(=O)[C@@H]1CCCN1C(=O)[C@H](N)Cc1ccccc1)C(=O)N1CCC[C@H]1C(=O)N[C@@H](CCC(=O)O)C(=O)N[C@@H](CCC(=O)O)C(=O)N[C@@H](Cc1ccc(O)cc1)C(=O)N[C@@H](CC(C)C)C(=O)NCC(=O)NCC(=O)N[C@@H](CS)C(N)=O", "note": "[HLL, reference compound]", "values": [{"measurement": "effect on cell-promoted fibrin clot formation", "setting": "[1]", "result": "little inhibition of cell-mediated clotting"}]}, {"compound": "Conjugate of Anticoagulant Peptide HLL-1 with 1,2-distearoyl-sn-glycero-3-phosphoethanolamine-N-[2-thiopropionyl(polyethyleneglycol)-2000] (FPRPGGGGDGDFEEIPEEYLGGC; not fully specified) [Compound 1]", "values": [{"measurement": "time for a fibrin clot to form, mean of three tubes", "setting": "[1]; cells pre-incubated with Compound 1 (50 uM) 30 min at 4° C., washed twice, re-calcified human plasma", "result": 172, "unit": "s"}, {"measurement": "time for a fibrin clot to form, single tube", "setting": "[1]; cells pre-incubated with Compound 1 (50 uM) 30 min at 4° C., washed twice, re-calcified human plasma, listed as C.1", "result": "169 s and 172 s and 175 s"}, {"measurement": "effect on cell-promoted fibrin clot formation", "setting": "[1]", "result": "inhibited this effect"}, {"measurement": "survival after transplantation", "setting": "[2]; donor kidney perfused with 2 uM, flushed, controls did not survive longer than 48 h", "result": "5 to 6", "unit": "days"}, {"measurement": "BUN deterioration", "setting": "[2]; donor kidney perfused with 2 uM, flushed, versus control", "result": "deterioration was significantly slower"}, {"measurement": "threshold concentration for bleeding", "setting": "[2]; rat, in vivo", "result": "around 10 nM"}]}, {"compound": "Conjugate of Anticoagulant Peptide HLL-1 with N-myristoyl-GSSKSPSKKKKKKPGDC(S-2-thiopyridyl)-amide (Myristoyl-GSSKSPSKKKKKKPGDC-NH2; not fully specified (residue 17); also: Cys S-2-thiopyridyl (activated form), conjugated to HLL-1 via Cys) [Compound 3]", "values": [{"measurement": "DMSO needed to maintain solubility", "setting": "[3]", "result": "> 50", "unit": "% v/v"}, {"measurement": "solubility in aqueous buffers", "setting": "[3]", "result": "only limited solubility in aqueous buffers"}]}]}
